Data on two molecules can be found in patent US20130012493A1, “NOVEL SPIRO IMIDAZOLONE DERIVATIVES AS GLUCAGON RECEPTOR ANTAGONISTS, COMPOSITIONS, AND METHODS FOR THEIR USE” (priority 2010, published 2013).

The assay addresses T1, recombinant human glucagon receptor (Homo sapiens, UniProt P47871).
T1 construct: expressed in transfected cells; host or cells: CHO (Chinese hamster ovary) cells
Kind of assay: Inhibition of glucagon-stimulated intracellular cAMP assay. The class given is cell-based. The note with it: CHO cells expressing recombinant human glucagon receptor, stimulated with 300 pM glucagon. The method, then: Inhibition of Glucagon-Stimulated Intracellular cAMP Assay
Chinese hamster ovary (CHO) cells expressing the recombinant human glucagon receptor were harvested with the aid of non-enzymatic cell dissociation solution (GIBCO 13151-014). The cells were then pelleted and suspended in the stimulation buffer (1×HBSS, 5 mM Hepes, 0.1% BSA, pH7.4 in presence of complete protease inhibitor and phosphodiesterase inhibitor). The adenylate cyclase assay was conducted following the LANCE cAMP Kit (Perkin Elmer, AD0262) instructions. Briefly, cells were preincubated with anti-cAMP antibody in the stimulation buffer with a final concentration of 3% DMSO for 30 minutes and then stimulated with 300 pM glucagon for 45 minutes. The reaction was stopped by incubating with the detection buffer containing Europium chelate of the Eu-SA/Biotin-cAMP tracer for 20 hours. The fluorescence intensity emitted from the assay was measured at 665 nm using PheraStar instruments. […] Standard cAMP concentrations were conducted concurrently for conversion of fluorescence signal to cAMP level. Data was analyzed using GraphPad Prism. IC50 values were calculated using non-linear regression analysis assuming single site competition. […] Some of the compounds of the invention shown in the examples measured less than about 5 μM in this assay; other examples measured less than about 500 nM; others less than about 100 nM.

T1 sequence (P47871 26-477): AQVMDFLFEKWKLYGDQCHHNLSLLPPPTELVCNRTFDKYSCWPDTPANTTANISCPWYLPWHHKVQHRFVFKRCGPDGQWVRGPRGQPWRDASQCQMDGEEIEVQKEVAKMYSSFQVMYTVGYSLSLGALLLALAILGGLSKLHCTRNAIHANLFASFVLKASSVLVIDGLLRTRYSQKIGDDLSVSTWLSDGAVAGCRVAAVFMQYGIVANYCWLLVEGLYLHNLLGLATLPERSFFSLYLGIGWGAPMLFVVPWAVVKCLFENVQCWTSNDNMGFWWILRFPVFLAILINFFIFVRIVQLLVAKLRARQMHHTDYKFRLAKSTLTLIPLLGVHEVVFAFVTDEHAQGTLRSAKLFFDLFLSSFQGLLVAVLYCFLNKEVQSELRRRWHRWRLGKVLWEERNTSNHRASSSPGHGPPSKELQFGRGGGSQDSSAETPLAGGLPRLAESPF

The term IC50 denotes the point on the concentration scale where inhibition reaches its midpoint. Regarding `CC[C@H](c1ccc(C(=O)NCCC(=O)O)cc1)N1C(=O)C(N2CCCCC2)=NC12CCC(C(C)(C)C)CC2` (some centres unmarked) [Example 10.4], the IC50 is 209 nM.
Consider `CC(C)(C)CC[C@H](c1ccc(C(=O)NCc2nn[nH]n2)cc1)N1C(=O)C(C2CCCCC2)=NC12CCC(C(C)(C)C)CC2` (some centres unmarked) [Example 9.99], for which the IC50 came to 290 nM.
